Measured values published in patent publication US20110312961A1, “2,5-Disubstituted Morpholine Orexin REceptor Antagonists” (priority 2008, published 2011).

Assays:
[1] = target: T1, rat native α4β2 receptors (Rattus norvegicus, UniProt P09483+P12390); assay: Radioligand binding, rat cortex membranes (α4β2); details: read-out: Ki, inhibition of [3H]epibatidine binding to rat native α4β2 receptors
T1 construct: rat native α4β2 receptors; from tissue; host or cells: rat (female Sprague-Dawley) cerebral cortex membranes
T1 sequence (P09483 31-630): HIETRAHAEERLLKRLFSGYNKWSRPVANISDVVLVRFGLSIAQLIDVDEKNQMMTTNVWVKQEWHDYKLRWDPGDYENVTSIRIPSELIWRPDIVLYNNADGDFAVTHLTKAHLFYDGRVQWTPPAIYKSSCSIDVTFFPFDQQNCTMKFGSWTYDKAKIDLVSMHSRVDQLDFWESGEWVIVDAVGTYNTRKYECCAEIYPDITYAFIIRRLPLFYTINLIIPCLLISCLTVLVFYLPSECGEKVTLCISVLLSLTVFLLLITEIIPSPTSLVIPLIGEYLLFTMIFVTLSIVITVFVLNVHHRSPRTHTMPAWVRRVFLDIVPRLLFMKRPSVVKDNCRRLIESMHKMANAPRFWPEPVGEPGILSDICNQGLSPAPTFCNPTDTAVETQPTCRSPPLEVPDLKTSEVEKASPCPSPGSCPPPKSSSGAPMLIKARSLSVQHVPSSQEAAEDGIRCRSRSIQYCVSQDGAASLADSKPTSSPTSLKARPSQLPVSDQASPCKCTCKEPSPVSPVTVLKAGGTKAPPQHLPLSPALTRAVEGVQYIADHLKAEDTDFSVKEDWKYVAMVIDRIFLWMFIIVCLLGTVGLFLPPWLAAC
T1 sequence (P12390 25-500): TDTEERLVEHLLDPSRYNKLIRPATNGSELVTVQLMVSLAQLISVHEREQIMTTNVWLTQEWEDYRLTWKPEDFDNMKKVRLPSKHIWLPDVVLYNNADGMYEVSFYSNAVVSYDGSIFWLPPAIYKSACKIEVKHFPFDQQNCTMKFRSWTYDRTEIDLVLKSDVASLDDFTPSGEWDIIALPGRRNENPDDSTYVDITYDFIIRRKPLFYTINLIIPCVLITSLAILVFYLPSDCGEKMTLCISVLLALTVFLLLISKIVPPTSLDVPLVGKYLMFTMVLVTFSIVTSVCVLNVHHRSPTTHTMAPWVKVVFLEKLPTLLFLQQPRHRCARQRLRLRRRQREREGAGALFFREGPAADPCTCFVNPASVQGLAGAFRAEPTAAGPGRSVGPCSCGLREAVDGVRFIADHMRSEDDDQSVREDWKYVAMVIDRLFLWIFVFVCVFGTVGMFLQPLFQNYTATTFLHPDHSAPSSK
Method: Preparation of Membranes from Rat Cortex: Rats (Female, Sprague-Dawley), weighing 150-250 g, were maintained on a 12 h light/dark cycle and were allowed free access to water and food supplied by PMI Nutrition International, Inc. Animals were anesthetized with 70% CO2, and then decapitated. Brains were removed and placed on an ice-cold platform. The cerebral cortex was removed and placed in 20 volumes (weight:volume) of ice-cold preparative buffer (137 mM NaCl, 10.7 mM KCl, 5.8 mM KH2PO4, 8 mM Na2HPO4, 20 mM HEPES (free acid), 5 mM iodoacetamide, 1.6 mM EDTA, pH 7.4); PMSF, dissolved in methanol to a final concentration of 100 μM, was added and the suspension was homogenized by Polytron. […]
On the day of the assay, the frozen membranes were thawed and spun at 48,000×g for 20 min. […] Protein concentrations were determined using a Pierce BCA Protein Assay Kit, with bovine serum albumin as the standard (Pierce Chemical Company, Rockford, Ill.).
[…] Filters were then counted to determine radioactivity bound to the membranes by liquid scintillation counting (2200CA Tri-Carb LSC, Packard Instruments, 50% efficiency or Wallac Trilux 1450 MicroBeta, 40% efficiency, Perkin Elmer).
Data were expressed as disintegrations per minute (DPMs). […] Ki values were calculated using the Cheng-Prussof equation (1973): […]

normal rats = assay: Novel object recognition (NOR) task; type: in vivo, rat; details: for Minimum Effective Dose (MED): oral, rats (FIG. 2)
Method: Memory was assessed by using the three-trial novel object recognition test. On the first day (exploratory trial), rats were allowed to explore an open arena (44.5×44.5×30.5 cm) for 6 min. On the second day (acquisition trial), rats were allowed to explore the same arena in the presence of two identical objects (both object A) for 3 minutes. On the third day (retention or recall trial), performance was evaluated by allowing the same animal to re-explore the arena for 3 minutes in the presence of two different objects: the familiar object A and a novel object B. An inter-trial interval of 24 hours was imposed between the three NOR trials. Recognition memory was assessed by comparing the time spent exploring a novel (object B) versus a familiar (object A) object during the recall trial. Recognition index was assessed for each animal and expressed as a ratio ((time B/time A+time B)×100).

[2] = Aqueous solubility of salts (salt screen); type: physicochemical; details: free base form

O=C(N[C@@H]1C2CCN(CC2)[C@H]1Cc1cccnc1)c1cc(F)cc(F)c1 [Compound A]
Ki [1]: 4.12 µM | lowest dose with statistically significant effect (normal rats; NOR vs. dose, FIG. 1): 0.1 mg/kg | lowest dose with statistically significant effect (normal rats; NOR, FIGS. 1-4): 0.03 µM/kg | effects observed out to, after dosing (normal rats; NOR, FIGS. 1-4, dose not given in the sentence): ≤ 18 h | lowest dose with statistically significant effect (normal rats; NOR, determination of minimum effective dose, FIG. 2): 0.03 mg/kg | Minimum Effective Dose (MED) (normal rats; NOR, listed as (2S,3R)-N-2-((3-pyridinyl)methyl)-1-azabicyclo[2.2.2]oct-3-yl)-3,5-difluorobenza): MED = 0.084 μmol/kg | Minimum Effective Dose (MED) (normal rats; NOR, listed as (2S,3R)—N-2-((3-pyridinyl)methyl)-1-azabicyclo[2.2.2]oct-3-yl)-3,5-difluorobenza): 0.084 µmol/kg | effect in "recall only" session (normal rats; single oral administration of 0.28 μmol/kg on day 3): demonstrated pro-cognitive effects | water solubility [2]: limited water solubility
